Values of other authors in patent US6645986B2 (Pfizer Products, Inc., priority 2000, dated 2003).
Counter-ions that a name gives are not always drawn.

Conditions: compared with the anhydrous mesylate salt

C[C@@H]([C@@H](O)c1ccc(O)cc1)N1CCC(O)(c2ccccc2)CC1 [mesylate salt trihydrate, (1S,2S)-1-(4-hydroxyphenyl)-2-(4-hydroxy-4-phenylpiperidin-1-yl)-1-propanol mesylate trihydrate]
stability of crystalline form: more stable crystalline form than the anhydrous mesylate salt
